Measured values reported in US20250134902A1, “DRUG REPURPOSING FOR DELAYED TREATMENT OF ISCHEMIC STROKE” (UNIVESRITY OF NORTH TEXAS HEALTH SCIENCE CENTER, priority 2022, published 2025).

Legend:
[1] = Pharmacokinetics of per oral oxeladin in plasma and brain; format: in vivo, rat; settings: for time after dosing at which detected in brain / time after dosing at which detected in plasma: rat, 135 mg/kg
Protocol: Evaluating the pharmacokinetics of Sigma receptor agonists. […] Whole blood was harvested into EDTA coated tubes at 30, 60, 120, 240, 720, and 1440 minutes from rats following euthanasia by CO2 inhalation. Plasma was processed from whole blood by centrifugation for 10 min at 10,000 rpm and frozen at −80° C. until assayed. The brains were collected, weighed, snap frozen in liquid nitrogen, and stored at −80° C. until processed.
For standards, 98 μl blank plasma was added to an Eppendorf tube spiked with 2 μl of […] (IS). For QCs, add 98.8 μl blank plasma was added to an Eppendorf tube spiked with 1.2 μl of IS. 100 μl plasma was mixed with 200 μl of acetonitrile containing 0.15% formic acid and 37.5 ng/ml IS (IS final conc.=25 ng/ml), and 100 microliters brain homogenized solution was mixed with 200 microliters of acetonitrile containing 0.15% formic acid and 60 ng/ml IS (IS final conc.=40 ng/ml). The samples were vortexed 15 sec, incubated at room temp for 10 min and spun 2×13,200 rpm in a standard microcentrifuge. The supernatant was then analyzed by LC/MS/MS (QTRAP® 3200) according to the following parameters:
Ion Source/Gas Parameters: CUR=25, CAD=medium, IS=5000, TEM=700, GS1=70, GS2=70.
Buffer A: Water+0.1% formic acid; Buffer B: ACN+0.1% formic acid; flow rate 1.5 ml/min; column Agilent Eclipse XDB-C18 column, 5 micron packing 50×4.6 mm size; 0-1.5 min 3% B, 1.5-2.0 min gradient to 100% B, 2.0-3.5 min 100% B, 3.5-3.6 min gradient to 3% B, 3.6-4.5 3% B. IS: n-benzylbenzamide (Sigma-Aldrich, lot #02914LH, in ACN, transition 212.1 to 91.1); Compound transition 336.127/100.1.

[2] = molecular target: T1, human Sigma-1 receptor (S1R) (Homo sapiens, UniProt Q99720); assay: Radioligand competition binding at Sigma-1 receptor ([3H]-(+)-pentazocine, MCF-7-hS1R)
T1 construct: expressed in transfected cells
T1 sequence (Q99720 whole entry): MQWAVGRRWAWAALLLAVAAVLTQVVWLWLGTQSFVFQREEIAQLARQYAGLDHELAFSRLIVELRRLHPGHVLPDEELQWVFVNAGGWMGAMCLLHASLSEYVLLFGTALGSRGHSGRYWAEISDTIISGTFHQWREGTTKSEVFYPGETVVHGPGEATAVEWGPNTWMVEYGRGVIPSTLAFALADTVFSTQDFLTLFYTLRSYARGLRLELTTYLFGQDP
Protocol: Measuring receptor density with radioligand binding.
Measuring the ligand affinities at SIR and S2R receptors by radioligand binding. […] Binding conditions were the same as described previously for the S1R (Schetz, et al., 2007): binding buffer (Tris 50 mM, pH=8.1 at 37° C.), ice-cold wash buffer (Tris 10 mM, pH=8.1 at 0-2° C.), and incubation time (3 hrs at 37° C.) with shaking. Non-specific binding for the S1R and S2R was determined in the presence of 5 μM BD1063 and […] haloperidol, respectively. Following incubation, receptors were collected via rapid filtration through GF/C filters (Brandel, Gaithersburg, MD) followed by washing three times with 3 mL of ice-cold wash buffer. Dried filters were transferred to vials filled with 3.5 ml of scintillation fluid, and the radioactivity was quantified on a liquid scintillation analyzer (TRICARB® 2800TR) from Perkin Elmer (Saint Louis, MO). Mean values from duplicate or triplicate determinations are reported along with their associated standard error of the mean (SEM). Ki values were calculated from IC50 values using the Cheng-Prusoff equation. The concentration of membrane protein was determined using a PIERCE® BCA Protein Assay kit (Life Technologies, Grand Island, NY) following the manufacturer's protocol.
Referring to FIG. 1, the selectivity of potential S1R ligands over S2R was empirically evaluated. Human MCF-7 cells were used as the source of the S2R because these cells express the endogenous S2R (Vilner, John, et al., 1995; Wu & Bowen, 2008) but lack detectable levels of the S1R, allowing unambiguous detection of S2R activity in untransfected cells (Schetz, et al., 2007). MCF-7 cells stably expressing the cloned human S1R were used as the source of S1R.

[3] = Maximum tolerated dose, oral gavage 10 days; format: in vivo
Protocol: Measuring the maximum tolerated dose of Sigma receptor agonists. Male Sprague-Dawley rats (2-3 per dose) were treated by oral gavage with 6, 18, 54, 108, 135 or 150 mg/kg as estimated from in vitro functional assays and estimates of human intake when used as an antitussive. Rats received a single daily dose for 10 days. Weight, water intake, and food intake were measured daily, and rats were assessed for somnolence, activity, sensitivity to touch, and taste aversion. At the conclusion of the study, rats were humanely euthanized and brain tissue was collected and flash frozen.

[4] = 135 mg/kg p.o., listed as oxeladin

SMILES: CCN(CC)CCOCCOC(=O)C(CC)(CC)c1ccccc1 [Oxeladin]
- half-life, brain ([1]; rat brain, 135 mg/kg oral gavage (figure legend)): greater than 4 hours
- AUClast, brain ([1]; rat brain, 135 mg/kg p.o.): 423726 ng·min/g
- Terminal T1/2 (terminal elimination half-life), brain ([1]; rat brain, 135 mg/kg p.o.): 319 min
- Tmax (time to obtain maximum concentration), brain ([1]; rat brain, 135 mg/kg p.o.): 30 min
- half-life, plasma ([1]; rat plasma, 135 mg/kg oral gavage (figure legend)): greater than 4 hours
- AUClast, plasma ([1]; rat plasma, 135 mg/kg p.o.): 122293 ng·min/mL
- Terminal T1/2 (terminal elimination half-life), plasma ([1]; rat plasma, 135 mg/kg p.o.): 249 min
- Tmax (time to obtain maximum concentration), plasma ([1]; rat plasma, 135 mg/kg p.o.): 30 min
- time after dosing at which detected in brain ([1]; 135 mg/kg p.o.): ≤ 30 min
- time after dosing at which detected in plasma ([1]; 135 mg/kg p.o.): ≤ 30 min
- time after dosing at which detected in brain [1, 4]: 30 min
- time after dosing at which detected in plasma [1, 4]: 30 min
- selective for S1R over S2R [2]: 9 fold
- Ki ([2]; displacement of 0.5 nM [3H]-(+)-pentazocine, MCF-7 cells expressing human S1R, average of 2-3 experiments ± SEM, read-out: S1R affinity (Ki)): 25 ± 4.3 nM
- S2R/S1R ratio (Ki S2R/Ki S1R) ([2]; selectivity for S1R over S2R): 6
- mortality or overt toxicity ([3]; 6-150 mg/kg daily oral gavage, 10 days, male rats): no mortality or overt toxicity observed
- well-tolerated dose ([3]; rat, in vivo, po): ≥ 150 mg/kg
